Experimental data from paper PMC11134608, “UBR5 forms ligand-dependent complexes on chromatin to regulate nuclear hormone receptor stability” (Molecular cell, 2023).
Read-outs that look alike come from different tables or passages of the source.

What was measured:
[1] = tested on: ER reporter; test: ER reporter degradation; format: cell-based, human; settings: 1 μM (legend, SERDs)
Experimental: Reporter cell lines were seeded in triplicate at a density of 1 million cells/ml in 100 μl per well in a 96 well plate and measured once. Ligand was added by Digital Dispenser (Tecan), and incubated at 37°C for the appropriate time before reading by flow cytometry. Cells were analyzed for GFP vs mCherry expression. GFP expression was normalized to mCherry signal and ligand treatments were compared to DMSO controls.

[2] = tested on: ER reporter (E3 ligase dependence); test: Targeted CRISPR screens, ER reporter K562 cells: E3 ligase used; format: cell-based, human; settings: for E3 ligase used for ER degradation: K562 ER reporter, CRISPR screen; for E3 Ligase (Table S2): Supplemental Table S2
Experimental: To characterize the UPS pathway components involved in SERD-induced ER degradation, we performed CRISPR screens with our ER reporter in the presence multiple SERDs: fulvestrant, GDC-0927, elacestrant, giredestrant, camizestrant, amcenestrant, AZD-9496, brilanestrant, and LSZ-102. […] Taken together, these findings indicate that different classes of SERDs engage distinct ubiquitin ligases and degradation pathways to target ER.
The UPS and tiling CRISPR functional genomics screen was performed following previously described methods.[22] Briefly, the UPS CRISPR library targets 713 E1, E2, E3 ubiquitin ligases, and deubiquitinases and includes controls genes with a total of 2852 guide RNAs, cloned into the pXPR003 backbone. The UBR5 Tiling screen was created by CRISPR-SURF.[29] Viruses were produced in a T-175 format and ten percent by volume of the library virus was added to reporter cell lines in triplicates for transduction. Transduced cells were allowed to recover and expand for nine days, then treated with indicated ligand. Top and bottom 5% of cells by GFP signal were sorted for a total of at least 100,000 cells per replicate. Samples were processed as previously described.[22]
Reporter cell lines were treated with ATRA or 9-cis RA, and then sorted into four populations by eGFP/mCherry fluorescence ratios (Gates A-D), corresponding to the bottom and top 5–10% respectively (Figure S1D).[22],[23] Sorted cells were pelleted, lysed, and processed according to previous studies.[22] Briefly sgRNAs were amplified in two PCRs via Titanium Taq (Takara Bio 639210), Titanium Taq Buffer and 800uM dNTP mix and eight staggered forward primers. The first PCR also contained 200 nM SBS3-Stagger-pXPR003 forward primer and 200 nM SBS12-pXPR003 reverse primer (cycles: 5 minutes at 94°C, 15 × (30 sec at 94°C, 15 sec at 58°C, 30 sec at 72°C), 2 minutes at 72°C). Illumina adapters and barcodes were added in the second PCR (200 nM P5-SBS3 forward primer, 200 nM P7-barcode-SBS12 reverse primer). Samples were pooled and purified by agarose gel-electrophoresis (Qiagen) and NaOAc/isopropanol precipitation. Amplified guides were quantified by next-generation sequencing (Genomics Platform, Broad Institute), and analyzed for enrichment in Gate A over Gate D, representing degradation rescue.

[3] = tested on: thyroid receptor beta (THRB); test: THRB reporter degradation in U937; format: cell-based, human; settings: for THRB degradation, significance: T3 vs DMSO, n = 3
Experimental: (§1) Cells were analyzed for GFP vs mCherry expression.

[4] = tested on: ER; settings: ref [17], [53]; cited from earlier work
Description: SERDs are a class of molecules targeting the ER for the treatment of breast cancer. […] Given that UBR5 is similarly recruited to the NR hydrophobic cleft, we hypothesized that fulvestrant and other SERDs may employ a different mechanism for ER degradation. […] One of the best understood SERDs, fulvestrant, drastically remodels the hydrophobic cleft[16],[17] in a manner incompatible with UBR5 or NCOA binding. […] Strikingly, this correlates with clinical utility, hallmarked by the wide use of fulvestrant and recent approval of elacestrant,[53] both of which employ RNF111, in contrast to UBR5 SERDs (Table S2), none of which have been approved for clinical use. The heterogeneity of ER transcriptional pro ...

[5] = tested on: ER; test: ER degradation after RNF111 or UBR5 knockdown (reporter K562; T47D western); format: cell-based, human; settings: K562 ER-GFP, shUBR5 / sgRNF111, Figure S8C, D
Experimental: as §1
Protein concentration was quantified via Pierce BCA Protein Assay Kit (ThermoFisher, 23225), and equal amounts of lysates were run on either SDS-PAGE 3–8% Tris-Acetate or 4–12% Bis-Tris Protein Gels (NuPAGE, ThermoFisher), then transferred to a PVDF membrane (Biorad, Wet Transfer System). Membranes were blocked for 30 minutes to 1 hour at room temperature in Odyssey Blocking Buffer/PBS (LI-COR Biosciences), and incubated with primary antibodies at 4 °C overnight. Stained membranes were washed three times in Tris-buffered saline with Tween 20 (TBS-T) and incubated for 1 hour at room temperature with secondary IRDye-conjugated antibodies (LI-COR Biosciences). Membranes were washed three times in TBS-T before imaging (Odyssey Imaging System, LI-COR Biosciences).

[6] = tested on: UBR5-RARA; test: In vitro FLAG-UBR5 pull-down of His-tagged RARA; format: binding, human; settings: 50 μM ligand, anti-His western, 25 mM HEPES pH 7.4, 125 mM NaCl, 0.05% TWEEN-20
Experimental: 12 μL of FLAG M2 slurry were equilibrated with binding buffer (25 mM HEPES pH 7.4, 125 mM NaCl, 0.05% TWEEN-20). The resin was pelleted and excess buffer removed. 60 μL of fresh binding buffer was re-added, followed by addition of 15 pmol (2.5 μL ofa6 μM solution) of purified FLAG-UBR5 protein and incubated on a rotating wheel at 4°C for 60–90 minutes. The resin was pelleted, excess buffer removed, and 150 μL fresh binding buffer (supplemented with 50 μM ligand of interest or DMSO) added, followed by 150 pmol protein (binding partner protein of interest) and incubated for another 60 minutes. The resin was pelleted, excess buffer removed and washed with 400 μL of binding buffer (supplemented with ligand of interest or DMSO), and this process was repeated three times. The resin was pelleted, excess buffer removed and 45 μL of binding buffer supplemented with 1 mg/mL 3xFLAG peptide was added to elute proteins over 30 minutes on a rotating wheel at room temperature. The resin was pelleted, and 40 μL of the supernatant was collected and mixed with 12 μL of 5xSDS gel loading buffer. 6 μL of these samples were applied to SDS-PAGE on a 4–20% gradient gel (Biorad). The gel was transferred to a nitrocellulose membrane using the Trans-Blot Turbo Transfer System (Biorad). Following blocking with 5% skim milk solution in TBST, primary antibodies targeting the NR proteins were added in TBST and incubated overnight at 4 °C. The following day, membranes were washed thrice with TBST buffer and incubated for 45 minutes with fluorescent secondary antibody (Invitrogen A11357), followed by three more washes with TBST. Imaging was performed on a Licor Odyssey system, scanned at 800 nm.

[7] = tested on: UBR5-RARA/RXRA; test: In vitro FLAG-UBR5 pull-down of His-tagged RARA/RXRA heterodimer; format: binding, human; settings: 50 μM ligand, pull-down, anti-His western; 25 mM HEPES pH 7.4, 125 mM NaCl, 0.05% TWEEN-20
Experimental: The resin was pelleted and excess buffer removed. 60 μL of fresh binding buffer was re-added, followed by addition of 15 pmol (2.5 μL ofa6 μM solution) of purified FLAG-UBR5 protein and incubated on a rotating wheel at 4°C for 60–90 minutes. The resin was pelleted, excess buffer removed, and 150 μL fresh binding buffer (supplemented with 50 μM ligand of interest or DMSO) added, followed by 150 pmol protein (binding partner protein of interest) and incubated for another 60 minutes. The resin was pelleted, excess buffer removed and washed with 400 μL of binding buffer (supplemented with ligand of interest or DMSO), and this process was repeated three times. The resin was pelleted, excess buffer removed and 45 μL of binding buffer supplemented with 1 mg/mL 3xFLAG peptide was added to elute proteins over 30 minutes on a rotating wheel at room temperature. The resin was pelleted, and 40 μL of the supernatant was collected and mixed with 12 μL of 5xSDS gel loading buffer. 6 μL of these samples were applied to SDS-PAGE on a 4–20% gradient gel (Biorad). The gel was transferred to a nitrocellulose membrane using the Trans-Blot Turbo Transfer System (Biorad). Following blocking with 5% skim milk solution in TBST, primary antibodies targeting the NR proteins were added in TBST and incubated overnight at 4 °C. […]

[8] = tested on: HR+ HER2- advanced breast cancer; settings: cited from earlier work; for clinical trial outcome, phase II: second-line treatment
Description: page 11: Supplemental Table S2: Clinical Development of Selective Estrogen Receptor Degraders (SERDs), related to Figure 6 Clinical Development Status for HR+ HER2- Advanced Compound Side Chain E3 Ligase Breast Cancer Treatment Fulvestrant Long Alkyl RNF111 FDA approved for first-line and second-line treatments1,2 FDA approved for second-line, ESR1-mutated disease Elacestrant (RAD1901) Basic Amino RNF111 treatment3,4; Ongoing phase III trial for first-line treatment (NCT05512364) Ongoing Phase III trial for first-line treatment Camizestrant (AZD9833) Basic Amino RNF111 (NCT04711252, NCT0496493 ...

[9] = tested on: progesterone receptor (PGR); test: PGR reporter degradation in U937; format: cell-based, human; settings: for PGR degradation, significance: R5020 vs DMSO, n = 3
Experimental: Additional NRs that have well-characterized ligand-induced degradation include vitamin D receptor (VDR),[46] progesterone receptor (PGR),[47] and thyroid receptor beta (THRB).[7]
as §1

## CC1=C(c2cccc(O)c2)[C@H](c2ccc(OCCN3CC(CF)C3)cc2)Oc2ccc(O)cc21 [GDC-0927]
[1]
  ER reporter degradation: induced ER reporter degradation
[2]
  E3 ligase used for ER degradation: employed a different E3 ligase, RNF111
  E3 Ligase (Table S2): RNF111

## N[C@@H](Cc1cc(I)c(Oc2cc(I)c(O)c(I)c2)c(I)c1)C(=O)O [levothyroxine [T3], levothyroxine]
[3]; LUC1 shRNA
  THRB degradation, significance: ** (**p<0.005)
[3]; LUC2 shRNA
  THRB degradation, significance: ** (**p<0.005)
[3]; U937, T3
  THRB reporter degradation: confirmed degradation
  UBR5 dependence of THRB degradation: not dependent on UBR5
[3]; UBR5-1 shRNA
  THRB degradation, significance: ** (**p<0.005)
[3]; UBR5-2 shRNA
  THRB degradation, significance: ** (**p<0.005)

## CCN(CCCCCOCC(=O)N[C@H](C(=O)N1C[C@H](O)C[C@H]1C(=O)N[C@@H](C)c1ccc(-c2scnc2C)cc1)C(C)(C)C)CCOc1ccc(C(=O)c2c(-c3ccc(O)cc3)sc3cc(O)ccc23)cc1 [ERD-308]
[1]
  ER reporter degradation: induced ER reporter degradation
[2]
  E3 ligase used for ER degradation: von Hippel-Lindau (VHL)
  E3 Ligase (Table S2): VHL

## CCNCCc1ccc(CN(CC)c2cc(OC)ccc2[C@@H]2CCc3cc(O)ccc3C2)cc1 [elacestrant]
[1]
  ER reporter degradation: induced ER reporter degradation
[4]
  ER degradation (literature): lead to ER degradation
[5]
  regulated class of ER degradation (RNF111 or UBR5): RNF111 Regulated
[2]
  E3 ligase used for ER degradation: employed a different E3 ligase, RNF111
  E3 Ligase (Table S2): RNF111

## CC1(C)CC=C(c2cnc3ccccc3c2)c2cc(C(=O)Nc3ccc(C(=O)O)cc3)ccc21 [BMS614]
[6]
  binding of RARA to UBR5: prevented complex formation
[7]
  binding of RARA/RXRA to UBR5: similarly hindered

## C[C@@H]1Cc2c([nH]c3ccccc23)[C@@H](c2c(F)cc(NC3CN(CCCF)C3)cc2F)N1CC(F)(F)CO [giredestrant]
[1]
  ER reporter degradation: induced ER reporter degradation
[5]
  regulated class of ER degradation (RNF111 or UBR5): RNF111 Regulated
[8]; giredestrant, NCT04576455, ref 6 (supplement)
  clinical trial outcome, phase II: Failed primary endpoint in phase II trial
[2]
  E3 ligase used for ER degradation: employed a different E3 ligase, RNF111
  E3 Ligase (Table S2): RNF111

## O=C1CC[C@H](N2Cc3cc(N4CCN(CC5CCN(c6ccc([C@@H]7c8ccc(O)cc8CC[C@@H]7c7ccccc7)cc6)CC5)CC4)ccc3C2=O)C(=O)N1 [ARV-471]
[1]
  ER reporter degradation: induced ER reporter degradation
[2]
  E3 ligase used for ER degradation: Cereblon (CRBN)
  E3 Ligase (Table S2): CRBN

## C[C@@H]1Cc2c([nH]c3ccccc23)[C@@H](c2c(F)cc(/C=C/C(=O)O)cc2F)N1CC(C)(C)F [AZD-9496]
[1]
  ER reporter degradation: induced ER reporter degradation
[5]
  regulated class of ER degradation (RNF111 or UBR5): UBR5 Regulated
[2]
  E3 ligase used for ER degradation: required UBR5 for degradation
  E3 Ligase (Table S2): UBR5

## CC(F)(F)c1cc(F)ccc1-c1sc2cc(O)ccc2c1Oc1ccc(/C=C/C(=O)O)cc1 [LSZ-102]
[1]
  ER reporter degradation: induced ER reporter degradation
[5]
  regulated class of ER degradation (RNF111 or UBR5): UBR5 Regulated
[2]
  E3 ligase used for ER degradation: required UBR5 for degradation
  E3 Ligase (Table S2): UBR5

## CC1=C(/C=C/C(C)=C\C=C\C(C)=C\C(=O)O)C(C)(C)CCC1 [9-cis RA, 9-cis-retinoic acid]
[6]
  binding of RARA to UBR5: robustly induced binding of RARA to UBR5

## C[C@@H]1Cc2c(ccc3[nH]ncc23)[C@@H](c2ccc(NC3CN(CCCF)C3)cn2)N1CC(F)(F)F [camizestrant]
[1]
  ER reporter degradation: induced ER reporter degradation
[5]
  regulated class of ER degradation (RNF111 or UBR5): RNF111 Regulated
[8]; camizestrant, NCT04214288, ref 5 (supplement)
  clinical trial outcome, phase II: Successful phase II trial
[2]
  E3 ligase used for ER degradation: employed a different E3 ligase, RNF111
  E3 Ligase (Table S2): RNF111

## O=C(O)c1ccc2c(c1)CCCC(c1ccc(Cl)cc1Cl)=C2c1ccc(O[C@H]2CCN(CCCF)C2)cc1 [amcenestrant]
[1]
  ER reporter degradation: induced ER reporter degradation
[5]
  regulated class of ER degradation (RNF111 or UBR5): RNF111 Regulated
[8]; amcenestrant, first-line treatment, NCT04478266, ref 7 (supplement)
  clinical trial outcome, phase III: Failed primary endpoint phase III trial for first-line
[8]; amcenestrant, NCT04059484, ref 8 (supplement)
  clinical trial outcome, phase II: Failed primary endpoint in
[2]
  E3 ligase used for ER degradation: employed a different E3 ligase, RNF111
  E3 Ligase (Table S2): RNF111

## CCC(=O)[C@@]1(C)CC[C@H]2[C@@H]3CCC4=CC(=O)CCC4=C3CC[C@@]21C [R5020]
[9]; LUC1 shRNA
  PGR degradation, significance: *** (***p<0.0005)
[9]; LUC2 shRNA
  PGR degradation, significance: * (*p<0.05)
[9]; U937, R5020
  PGR reporter degradation: confirmed degradation
  effect of UBR5 shRNAs on PGR degradation: rescued degradation
